# Measured values published in US8735384B2, “Amino heteroaryl compounds as beta-secretase modulators and methods of use” (Amgen Inc., priority 2010, dated 2014).
# Read-outs that look alike come from different tables or passages of the source.
# Key:
# BACE1 = BACE1 (Homo sapiens, UniProt P56817); assay: In vitro enzymatic BACE FRET assay; type: biochemical; conditions: beta secretase enzyme 0.2 nM, FRET substrate 50 nM, pH 4.2; read-out: BACE1 FRET assay (IC50 class)
# Method: In Vitro Enzymatic BACE FRET (Fluorescence Resonance Energy Transfer) Assay (Enzyme Assay Data in Table 1)
# The assay buffer used in this screen is 0.05 M acetate, pH 4.2, 10% DMSO final, 100 uM genapol (which is a nonionic detergent, below its Critical Micelle Concentration). The beta secretase enzyme (0.2 nM) is pre-incubated for one hour with inhibitors, typically in about 1 uL of DMSO according to a serial dilution, are added thereto. The assay is effectively started by the addition of FRET substrate (50 nM) and the combination is incubated for one hour. The FRET assay is terminated with by addition of Tris buffer, which raises the pH to neutrality, and the fluorescence is determined. The FRET substrate is a peptide with commercially available fluorophore and quencher, on opposite sides of the BACE cleavage site. Proteolytic cleavage of the FRET substrate releases quenching of fluorescence (excitation […] and […]).
# Of the compounds tested, the in-vitro BACE FRET enzyme data for each of Examples 1-220, where available at the time of filing this application, is provided in Table 1.
# [1] = system: Aβ40 in conditioned medium of cells stably expressing Amyloid Precursor Protein (APP); assay: In vitro BACE cell-based assay (HEK cell assay), Aβ40 sandwich ELISA; conditions: inhibition of Aβ40, 24 h incubation, read-out: HEK cell assay (IC50 class)
# Method: In Vitro BACE Cell-Based Assay:
# The cell-based assay measures inhibition or reduction of Aβ40 in conditioned medium of test compound treated cells expressing amyloid precursor protein.
# Cells stably expressing Amyloid Precursor Protein (APP) were plated at a density of 40K cells/well in 96 well plates (Costar). The cells were cultivated for 24 hours at 37° C. and 5% CO2 in DMEM supplemented with 10% FBS. The test compounds were then added to cells in 10-point dose response concentrations with the starting concentration being either 100 μM or 10 μM. The compounds were diluted from stock solutions in DMSO and the final DMSO concentration of the test compounds on cells was 0.1%. After 24 h of incubation with the test compounds the supernatant conditioned media was collected and the Aβ 40 levels were determined using a sandwich ELISA. The IC50 of the compound was calculated from the percent of control or percent inhibition of Aβ 40 as a function of the concentration of the test compound.
# The sandwich ELISA to detect Aβ 40 was performed in 96 well microtiter plates, which were pre-treated with goat anti-rabbit IgG (Pierce). The capture and detecting antibody pair that were used to detect Aβ 40 from cell supernatants were affinity purified pAb40 (Biosource) and biotinylated 6E10 (Signet Labs Inc.), respectively. The optimal concentration for the pAb40 antibody was 3 μg/ml in Superblock/TBS (Pierce) that was supplemented with 0.05% Tween 20 (Sigma). Optimal concentration for the detection antibody 6E10-biotinylated was 0.5 μg/ml in Superblock/TBS (Pierce) that had been supplemented with 2% normal goat serum and 2% normal mouse serum.
# Cellular supernatants were incubated with the capture antibody for 3 h at 4° C., followed by 3 wash steps in TBS-tween (0.05%). The detecting antibody incubation was for 2 h at 4° C., again followed by the wash steps as described previously. The final readout of the ELISA is Time-Resolved Fluorescence (counts per minute) using Delfia reagents Streptavidin-Europium and Enhancement solutions (Perkin Elmer) and the Victor 2 multilabel counter (Perkin Elmer).
# Sequence of BACE1 (P56817 46-501, species assumed): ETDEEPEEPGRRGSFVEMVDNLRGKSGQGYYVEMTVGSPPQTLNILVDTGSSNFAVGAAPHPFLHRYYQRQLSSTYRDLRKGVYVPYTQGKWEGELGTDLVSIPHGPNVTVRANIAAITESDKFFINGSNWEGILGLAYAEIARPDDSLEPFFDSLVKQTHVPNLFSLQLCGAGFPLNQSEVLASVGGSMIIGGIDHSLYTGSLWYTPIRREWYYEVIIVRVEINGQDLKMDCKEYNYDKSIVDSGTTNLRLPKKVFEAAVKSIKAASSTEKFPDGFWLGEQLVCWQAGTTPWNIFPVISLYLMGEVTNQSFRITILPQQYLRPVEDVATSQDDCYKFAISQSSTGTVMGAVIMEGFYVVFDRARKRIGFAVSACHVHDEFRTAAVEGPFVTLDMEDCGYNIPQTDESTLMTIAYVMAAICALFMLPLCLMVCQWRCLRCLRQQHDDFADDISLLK
Compound,IC50 (BACE1),IC50 [1],"IC50 ([1]; Homo sapiens, HEK293, 24 h)"
"Cc1cccc(C2=NCCc3ccccc32)c1-c1ccc2nc(N)c(N3CCOCC3)cc2c1 [Example 4, 6-(2-(3,4-dihydroisoquinolin-1-yl)-6-methylphenyl)-3-morpholinoquinolin-2-amine]",100 to 500 nM,,501 to 1000 nM
"Cc1cccc(C(=O)C2CCCO2)c1-c1ccc2nc(N)c(N3CCOCC3)cc2c1 (stereo not shown) [Example 5, (2-(2-amino-3-morpholinoquinolin-6-yl)-3-methylphenyl)(tetrahydrofuran-2-yl)methanone]",100 to 500 nM,,501 to 1000 nM
"Cc1cccc(C(c2ccccc2)n2ccnc2)c1-c1ccc2nc(N)c(N3CCOCC3)cc2c1 (stereo not shown) [Example 8, 6-(2-((1H-imidazol-1-yl)(phenyl)methyl)-6-methylphenyl)-3-morpholinoquinolin-2-amine]",1010 to 5000 nM,,1010 to 5000 nM
"Cc1cccc(C(c2ccccc2)N2CCCC2)c1-c1ccc2nc(N)c(N3CCOCC3)cc2c1 (stereo not shown) [Example 9, 6-(2-methyl-6-(phenyl(pyrrolidin-1-yl)methyl)phenyl)-3-morpholinoquinolin-2-amine]",501 to 1000 nM,,100 to 500 nM
"Cc1cccc(C2NCCc3ccccc32)c1-c1ccc2nc(N)c(N3CCOCC3)cc2c1 (stereo not shown) [Example 10, 6-(2-methyl-6-(1,2,3,4-tetrahydroisoquinolin-1-yl)phenyl)-3-morpholinoquinolin-2-amine]",1010 to 5000 nM,,100 to 500 nM
"Nc1nc2ccc(-c3ccccc3C(=O)C3CCOCC3)cc2cc1N1CCOCC1 [Example 11, (2-(2-amino-3-morpholinoquinolin-6-yl)phenyl)(tetrahydro-2H-pyran-4-yl)methanone]",100 to 500 nM,,1010 to 5000 nM
"Nc1nc2ccc(-c3ccccc3C(O)C3CCOCC3)cc2cc1N1CCOCC1 (stereo not shown) [Example 12, (2-(2-amino-3-morpholinoquinolin-6-yl)phenyl)(tetrahydro-2H-pyran-4-yl)methanol]",1010 to 5000 nM,,> 5000 nM
"Nc1nc2ccc(-c3ccccc3CC3CCOCC3)cc2cc1N1CCOCC1 [Example 13, 3-morpholino-6-(2-((tetrahydro-2H-pyran-4-yl)methyl)phenyl)quinolin-2-amine]",100 to 500 nM,,1010 to 5000 nM
"CCCC(=N)c1cccc(C)c1-c1ccc2nc(N)c(N3CCOCC3)cc2c1 [Example 14, 6-(2-(1-iminobutyl)-6-methylphenyl)-3-morpholinoquinolin-2-amine]",100 to 500 nM,,> 5000 nM
"Cc1cccc(-c2nnc3ccccn23)c1-c1ccc2nc(N)c(N3CCOCC3)cc2c1 [Example 22, 6-(2-([1,2,4]triazolo[4,3-a]pyridin-3-yl)-6-methylphenyl)-3-morpholinoquinolin-2-amine]",100 to 500 nM,,501 to 1000 nM
"Cc1cccc(C(=O)c2ccncn2)c1-c1ccc2nc(N)c(N3CCOCC3)cc2c1 [Example 23, (2-(2-amino-3-morpholinoquinolin-6-yl)-3-methylphenyl)(pyrimidin-4-yl)methanone]",100 to 500 nM,,> 5000 nM
"Cc1cccc(-c2cccc(C(F)(F)F)c2)c1-c1ccc2nc(N)c(N3CCOCC3)cc2c1 [Example 25, 6-(3-methyl-3′-(trifluoromethyl)biphenyl-2-yl)-3-morpholinoquinolin-2-amine]",< 100 nM,,> 5000 nM
"Cc1cccc(C(=O)n2ccc3ccccc32)c1-c1ccc2nc(N)c(N3CCOCC3)cc2c1 [Example 26, (2-(2-amino-3-morpholinoquinolin-6-yl)-3-methylphenyl)(1H-indol-1-yl)methanone]",100 to 500 nM,,> 5000 nM
"Cc1cc(F)cc(C(=O)N2CCCC2)c1-c1ccc2nc(N)c(N3CCOCC3)cc2c1 [Example 27, (2-(2-amino-3-morpholinoquinolin-6-yl)-5-fluoro-3-methylphenyl)(pyrrolidin-1-yl)methanone]",< 100 nM,,100 to 500 nM
"Cc1cccc(C(=O)N2CCCC2)c1-c1ccc2nc(N)c(C3CCOCC3)cc2c1 [Example 28, (2-(2-amino-3-(tetrahydro-2H-pyran-4-yl)quinolin-6-yl)-3-methylphenyl)(pyrrolidin-1-yl)methanone]",< 100 nM,,< 100 nM
"Cc1cccc(C(=O)N2CCCC2)c1-c1ccc2nc(N)c(C3CCCCO3)cc2c1 (stereo not shown) [Example 29, (2-(2-amino-3-(tetrahydro-2H-pyran-2-yl)quinolin-6-yl)-3-methylphenyl)(pyrrolidin-1-yl)methanone]",100 to 500 nM,,1010 to 5000 nM

# More lines, now with the values ahead:
IC50 (BACE1),IC50 [1],"IC50 ([1]; Homo sapiens, HEK293, 24 h)",Compound
< 100 nM,1010 to 5000 nM,,"2-(2-amino-3-(2,6-dimethylmorpholino)quinolin-6-yl)-N-ethyl-3-methyl-N-propylbenzamide [Example 216]"
< 100 nM,501 to 1000 nM,,"Cc1cccc(C(=NO)c2ccccc2)c1-c1ccc2nc(N)c(N3CCOCC3)cc2c1 (stereo in doubt) [Example 16, (Z)-(2-(2-amino-3-morpholinoquinolin-6-yl)-3-methylphenyl)(phenyl)methanone oxime]"
< 100 nM,,100 to 500 nM,"Cc1cccc(C(=O)N2CCCC2)c1-c1ccc2nc(N)c(N3CCOCC3)cc2c1 [Example 1, (2-(2-amino-3-morpholinoquinolin-6-yl)-3-methylphenyl)(pyrrolidin-1-yl)methanone]"
< 100 nM,,1010 to 5000 nM,"Cc1cccc(C(=O)c2ccccc2)c1-c1ccc2nc(N)c(N3CCOCC3)cc2c1 [Example 2, (2-(2-amino-3-morpholinoquinolin-6-yl)-3-methylphenyl)(phenyl)methanone]"
< 100 nM,,501 to 1000 nM,"Cc1ccccc1C(=O)c1cccc(C)c1-c1ccc2nc(N)c(N3CCOCC3)cc2c1 [Example 3, (2-(2-amino-3-morpholinoquinolin-6-yl)-3-methylphenyl)(o-tolyl)methanone]"
< 100 nM,,< 100 nM,"COc1ccccc1C(=N)c1cccc(C)c1-c1ccc2nc(N)c(N3CCOCC3)cc2c1 [Example 6, 6-(2-(imino(2-methoxyphenyl)methyl)-6-methylphenyl)-3-morpholinoquinolin-2-amine]"
< 100 nM,,100 to 500 nM,"COc1ccccc1C(=O)c1cccc(C)c1-c1ccc2nc(N)c(N3CCOCC3)cc2c1 [Example 7, (2-(2-amino-3-morpholinoquinolin-6-yl)-3-methylphenyl)(2-methoxyphenyl)methanone]"
< 100 nM,,501 to 1000 nM,"CO/N=C(\c1ccccc1)c1cccc(C)c1-c1ccc2nc(N)c(N3CCOCC3)cc2c1 [Example 15, (E)-(2-(2-amino-3-morpholinoquinolin-6-yl)-3-methylphenyl)(phenyl)methanone O-methyl oxime]"
< 100 nM,,< 100 nM,"Cc1cccc(C(N)c2ccccc2)c1-c1ccc2nc(N)c(N3CCOCC3)cc2c1 (stereo not shown) [Example 17, 6-(2-(amino(phenyl)methyl)-6-methylphenyl)-3-morpholinoquinolin-2-amine]"
< 100 nM,,1010 to 5000 nM,"Cc1cccc(Cc2ccccc2)c1-c1ccc2nc(N)c(N3CCOCC3)cc2c1 [Example 18, 6-(2-benzyl-6-methylphenyl)-3-morpholinoquinolin-2-amine]"
< 100 nM,,100 to 500 nM,"Cc1cccc(C(=O)OC2CCCC2)c1-c1ccc2nc(N)c(N3CCOCC3)cc2c1 [Example 19, cyclopentyl 2-(2-amino-3-morpholinoquinolin-6-yl)-3-methylbenzoate]"
< 100 nM,,501 to 1000 nM,"Cc1cccc(C(=O)N2CCCC2)c1-c1ccc2nc(N)c(N3CCOC[C@H]3C)cc2c1 [Example 20, (R)-(2-(2-amino-3-(3-methylmorpholino)quinolin-6-yl)-3-methylphenyl)(pyrrolidin-1-yl)methanone]"
< 100 nM,,1010 to 5000 nM,"CCC1CN(c2cc3cc(-c4c(C)cccc4C(=O)N4CCCC4)ccc3nc2N)CCO1 (stereo not shown) [Example 21, (2-(2-amino-3-(2-ethylmorpholino)quinolin-6-yl)-3-methylphenyl)(pyrrolidin-1-yl)methanone]"
